Values of other authors in article PMC7395068, “The evolution of strategies to minimise the risk of human drug-induced liver injury (DILI) in drug discovery and development” (Archives of Toxicology, 2020).
Like-named read-outs stand apart in the source and are kept apart here.

Experiments:
[1] = system: HepG2 cells, primary human hepatocytes; settings: cited from earlier work
[2] = cited from earlier work
[3] = cited from earlier work; remark: listed apart in the source
[4] = system: human hepatocytes; settings: cited from earlier work
[5] = system: rBsep; settings: In vitro Assay; ref Dawson 2012; cited from earlier work
[6] = system: THLE-Null and THLE-3A4 cells; settings: In vitro Assay; ref Gustafsson 2014; cited from earlier work
[7] = cited from earlier work; remark: listed apart in the source
[8] = system: HepG2 cells; settings: In vitro Assay; ref O'Brien 2006; cited from earlier work
[9] = system: isolated mouse liver mitochondria; settings: In vitro Assay; ref Porceddu 2012; cited from earlier work
[10] = system: HepG2 cells; settings: In vitro Assay; ref Persson 2013; cited from earlier work
[11] = system: primary human hepatocytes, NIH3T3 fibroblasts, BSEP, CYP3A4; settings: In vitro Assay; ref Schadt 2015; cited from earlier work
[12] = system: THLE or HepG2 cells, isolated mitochondria, BSEP; settings: cited from earlier work
[13] = system: PHH spheroids; settings: In vitro Assay; ref Vorrink 2018; cited from earlier work
[14] = In vitro Assay, ref Garside 2014

Row | SMILES | Cluster 1-6 +VE Assay [1, 14] | DILI +VE (5-8), DILI -VE (-4) ([3]; in vivo) | DILI severity category ([3]; in vivo) | Inhibition of rBsep cutoff<1& cmax u>.2 [5] | Inhibition of rBsep cutoff<3 [5] | THLE-Null [6] | THLE-Null/3A4 [6] | DILI Score (FDA) (1-8) ([7]; ref Chen 2011) | Structural based (HCI) [8] | in vitro data EC2<=1x Cmax [9] | in vitro data EC20<=2uM [9] | DILI Score (FDA) (1-8) ([7]; in vivo) | In vivo DILI ([2]; […]) | In vivo DILI ([2]; ref Aleo 2019) | In vivo DILI ([2]; ref Garside 2014) | In vivo DILI ([2]; ref Gustafsson 2014) | DILI +VE (5-8), DILI -VE (-4) ([3]; ref Chen 2016) | DILI severity category ([3]; ref Chen 2016) | further results
1 | COc1cc(C)c(/C=C/C(C)=C/C=C/C(C)=C/C(=O)O)c(C)c1C [acitretin] | +VE | +VE | vMost-DILI-Concern | -VE | +VE | +VE | +VE | 5 | – | – | – | – | – | – | – | – | – | – | In vivo DILI ([2]; in vivo): +VE; Structural based (HCI) [4]: -VE
2 | CC(C)Cc1ccc(C(C)C(=O)O)cc1 (centres unmarked) [ibuprofen] | – | +VE | vLess-DILI-Concern | -VE | +VE | -VE | – | – | +VE | +VE | +VE | 3 | – | – | – | – | – | – | Structural based (HCI) [10]: +VE; Cellular toxicity (3T3 cells) [11]: -VE; Combined Assay [11]: -VE; GSH adduct HML [11]: -VE; Hepatocyte cellular toxicity [11]: -VE; MitoTox 3T3 [11]: -VE; TDI CYP3A4 [11]: -VE; hBSEP inhibition [11]: -VE
3 | CCCNC(=O)NS(=O)(=O)c1ccc(Cl)cc1 [chlorpropamide] | -VE | – | – | -VE | -VE | -VE | -VE | 2 | – | – | – | – | +VE | +VE | +VE | +VE | +VE | vLess-DILI-Concern | In vivo DILI ([2]; ref Dawson 2012): +VE; Partition Hybrid HRM Score ([12]; In vitro Assay, ref Aleo 2019): -VE; Ro2 Hybrid HRM Score ([12]; In vitro Assay, ref Aleo 2019): +VE
4 | CNC(=C[N+](=O)[O-])NCCSCc1ccc(CN(C)C)o1 [ranitidine] | – | – | – | -VE | -VE | -VE | – | 5 | – | +VE | -VE | – | +VE | +VE | +VE | +VE | +VE | vLess-DILI-Concern | In vivo DILI ([2]; ref Dawson 2012): +VE; In vivo DILI ([2]; ref Porceddu 2012): +VE; In vivo DILI ([2]; ref Xu 2008): -VE; Partition Hybrid HRM Score ([12]; In vitro Assay, ref Aleo 2019): -VE; Ro2 Hybrid HRM Score ([12]; In vitro Assay, ref Aleo 2019): -VE
5 | CN(C/C=C/C#CC(C)(C)C)Cc1cccc2ccccc12 [terbinafine] | -VE | – | – | – | – | +VE | -VE | 8 | +VE | +VE | +VE | – | – | – | +VE | +VE | +VE | vMost-DILI-Concern | In vivo DILI ([2]; ref O'Brien 2006): +VE; In vivo DILI ([2]; ref Porceddu 2012): +VE
6 | CC1(C)S[C@@H]2[C@H](NC(=O)[C@H](N)c3ccc(O)cc3)C(=O)N2[C@H]1C(=O)O [amoxicillin] | – | – | – | -VE | -VE | -VE | – | 3 | – | +VE | +VE | – | -VE | +VE | +VE | +VE | +VE | vLess-DILI-Concern | In vivo DILI ([2]; ref Dawson 2012): -VE; In vivo DILI ([2]; ref Porceddu 2012): +VE; In vivo DILI ([2]; ref Schadt 2015): -VE; Partition Hybrid HRM Score ([12]; In vitro Assay, ref Aleo 2019): -VE; Ro2 Hybrid HRM Score ([12]; In vitro Assay, ref Aleo 2019): -VE
7 | O=C1CC[C@@]2(O)[C@H]3Cc4ccc(O)c5c4[C@@]2(CCN3CC2CC2)[C@H]1O5 [naltrexone] | – | -VE | Ambiguous DILI-concern | – | – | -VE | -VE | – | – | – | – | 3 | – | – | – | – | – | – | In vivo DILI ([2]; in vivo): +VE; Structural based (HCI) ([4]; In vitro Assay, ref Xu 2008): -VE
8 | CN1CCN(CCCN2c3ccccc3Sc3ccc(C(F)(F)F)cc32)CC1 [trifluoperazine, reference compound] | +VE | – | – | – | – | – | – | 2 | -VE | – | – | – | – | – | +VE | – | -VE | Ambiguous DILI-concern | in vivo DILI classification in publications of Supplemental Table 1 ([2]; publications disagreeing with the LTKB classification, ref Supplemental Table 1 publications): DILI positive in vivo; In vivo DILI ([2]; ref O'Brien 2006): +VE; In vivo DILI ([2]; ref Vorrink 2018): +VE; In vivo DILI ([2]; ref Xu 2008): +VE; Structural based (HCI) ([4]; In vitro Assay, ref Xu 2008): +VE; hLiMTs ATP <20 x Cmax [13]: -VE
9 | COc1ccc(C(CN(C)C)C2(O)CCCCC2)cc1 (centres unmarked) [venlafaxine] | – | +VE | vLess-DILI-Concern | – | – | – | – | – | – | – | – | 7 | – | – | – | – | – | – | Cluster 1-6 +VE Assay [1]: -VE; Partition Hybrid HRM Score [12]: +VE; Ro2 Hybrid HRM Score [12]: +VE
10 | CN(C)[C@@H]1C(O)=C(C(N)=O)C(=O)[C@@]2(O)C(O)=C3C(=O)c4c(O)cccc4[C@@](C)(O)[C@H]3C[C@@H]12 [tetracycline] | – | +VE | vLess-DILI-Concern | – | – | – | – | – | – | – | – | 2 | – | – | – | – | – | – | Cluster 1-6 +VE Assay [1]: -VE; Structural based (HCI) [4]: +VE; hLiMTs ATP <20 x Cmax [13]: +VE (IC20 < 20 × Cmax.tot cut-off)
11 | C[C@](N)(Cc1ccc(O)c(O)c1)C(=O)O [methyldopa] | -VE | – | – | -VE | -VE | -VE | -VE | 8 | -VE | +VE | -VE | – | +VE | – | +VE | +VE | +VE | vMost-DILI-Concern | In vivo DILI ([2]; ref Dawson 2012): +VE; In vivo DILI ([2]; ref O'Brien 2006): +VE; In vivo DILI ([2]; ref Persson 2013): +VE; In vivo DILI ([2]; ref Porceddu 2012): -VE; Cluser analysis [10]: -VE; Structural based (HCI) [10]: +VE
12 | CC1=C(/C=C/C(C)=C/C=C/C(C)=C\C(=O)O)C(C)(C)CCC1 [isotretinoin] | +VE | – | – | – | – | – | – | 2 | -VE | – | – | – | – | – | +VE | – | +VE | vMost-DILI-Concern | In vivo DILI ([2]; ref O'Brien 2006): +VE; In vivo DILI ([2]; ref Xu 2008): +VE; Structural based (HCI) ([4]; In vitro Assay, ref Xu 2008): +VE
13 | CC(O)(CS(=O)(=O)c1ccc(F)cc1)C(=O)Nc1ccc(C#N)c(C(F)(F)F)c1 (centres unmarked) [bicalutamide] | +VE | – | – | – | – | – | – | 8 | – | – | – | – | – | +VE | +VE | – | +VE | vMost-DILI-Concern | In vivo DILI ([2]; ref Persson 2013): +VE; In vivo DILI ([2]; ref Xu 2008): +VE; Cluser analysis [10]: -VE; Structural based (HCI) [10]: +VE; Structural based (HCI) ([4]; In vitro Assay, ref Xu 2008): -VE
14 | Nc1nc2c(ncn2COCCO)c(=O)[nH]1 [acyclovir] | – | +VE | vLess-DILI-Concern | -VE | -VE | -VE | – | – | – | – | – | 5 | – | – | – | – | – | – | Cellular toxicity (3T3 cells) [11]: -VE; Combined Assay [11]: -VE; GSH adduct HML [11]: -VE; Hepatocyte cellular toxicity [11]: -VE; MitoTox 3T3 [11]: -VE; TDI CYP3A4 [11]: -VE; hBSEP inhibition [11]: -VE
15 | CO[C@H]1/C=C/O[C@@]2(C)Oc3c(C)c(O)c4c(O)c(c(/C=N/N5CCN(C)CC5)c(O)c4c3C2=O)NC(=O)/C(C)=C\C=C\[C@H](C)[C@H](O)[C@@H](C)[C@@H](O)[C@@H](C)[C@H](OC(C)=O)[C@@H]1C [rifampin] | -VE | – | – | – | – | – | – | 8 | – | – | – | – | +VE | +VE | +VE | – | +VE | vMost-DILI-Concern | Partition Hybrid HRM Score ([12]; In vitro Assay, ref Aleo 2019): +VE; Ro2 Hybrid HRM Score ([12]; In vitro Assay, ref Aleo 2019): +VE
